{"source": "patent US12167995B2", "about": "“[((1R,2S,5R)-2-isopropyl-5-methyl-cyclohexanecarbonyl)-amino]-acetic acid isopropyl ester for treatment of chronic cough” (AXALBION SA, priority 2019, dated 2024)", "key": {"[1]": {"tested_on": "87 primary molecular targets including 13 enzyme and 74 binding assays", "test": "Off-target pharmacology study (SafetyScreen87 assay)", "settings": "100 μM AX-8", "excerpt": "In addition, an off-target pharmacology study (SafetyScreen87 assay by Eurofins Pharma Discovery Services) has been performed. This assay package consists of 87 primary molecular targets including 13 enzyme and 74 binding assays, representing potential safety issues."}, "[2]": {"tested_on": "refractory chronic cough (RCC)", "test": "Clinical Trial 2: cough severity and associated sensations, 100 mm VAS", "assay_type": "in vivo, human", "experimental": "Cough Severity was scored on a 100 mm Visual Analog Scale (VAS) at the specified time points. The patient was asked to indicate their assessment by marking (e.g., with a pen) a position along a 100 mm line between two extremes, e.g., “no cough” and “worst cough”. Urge-to-cough was scored on a 100 mm VAS at the specified time points. Throat irritation was scored on a 100 mm VAS at the specified time points. Throat cooling was scored on a 100 mm VAS at the specified time points. At least 24 hours after the Baseline Visit cough monitor has been attached on Day 0, and preferably before 10 am, the following activities were performed by clinic staff (not specified by the order below): • Remove the Baseline Visit cough monitor. • Update medical history. • Record all concomitant medication use. • Inclusion/exclusion criteria review. • If all inclusion and exclusion criteria were met, enroll patient into study. • Vital signs: before dose and 4 hours after dose. • 12-lead ECG (before dose). • Laboratory tests: • Urine drugs-of-abuse testing. • Pharmacokinetic (PK) sample taken. • Provide subject with VAS diary and instruct them to complete VAS assessments at +5 and +6 hours at home (see below). • Before dosing, attach and activate Treatment Visit cough monitor. • Administer the dose of the study drug (preferably before 10 am). • Cough severity VAS assessment: • Prior to dose: • −30 minutes. • After dose: • +1, +2, +3, +4, +5, +6 hours. • Urge-to-cough VAS assessment: • Prior to dose: • −30 minutes. • After dose: • +1, +2, +3, +4, +5, +6 hours. • Throat irritancy VAS assessment: • Prior to dose: • −30 minutes. • After dose: • +1, +2, +3, +4, +5, +6 hours. • Throat cooling VAS assessment: • Prior to dose: • −30 minutes. • After dose: • +1, +2, +3, +4, +5, +6 hours. • GRCS assessment at 4 hours after dose. • Schedule Follow-Up Visit. • Once the Investigator confirmed it was safe to do so, the subject could leave the unit after the assessments 4 hours after dose were complete. At least 24 hours after the Treatment Visit cough monitor has been attached (on Day 1), the following activities were performed by clinic staff (not specified by the order below): • Remove the Treatment Visit cough monitor. • Collect and review the VAS diary for completeness. • Overall impression of the treatment day (24 hours) with: • Cough severity VAS assessment. • Urge-to-cough VAS assessment. • Throat irritancy VAS assessment. • Throat cooling VAS assessment. • GRCS assessment. • Record all adverse events. • Record all concomitant medication use. • Schedule End of Study visit. End of Study Visit (Visit 5): The following procedures and evaluations were performed at the clinic between Day 7 and 14. At this visit, the following procedures and assessments were performed by clinic staff (not specified by the order below): • Cough severity VAS assessment. • Urge-to-cough VAS assessment. • Throat irritancy VAS assessment. • GRCS assessment. • Vital signs. • Weight. • Physical examination. • 12-lead ECG. • Laboratory tests: • Hematology. • Chemistry. • Urinalysis. • Urine pregnancy test for females of childbearing potential. • Record all adverse events. • Record all concomitant medication use."}, "[3]": {"tested_on": "refractory chronic cough (RCC)", "test": "Clinical Trial 2: Global Rating of Change Scale (GRCS)", "assay_type": "in vivo, human", "excerpt": "The GRCS was used by subjects to assess their overall status for the specified periods (the 4-hour period following dose; and the 24-hour period following dose). It consisted of a […] scale ranging from ‘a very great deal better’ to ‘a very great deal worse’."}, "[4]": {"test": "Phase 1 study in healthy volunteers: safety and tolerability", "assay_type": "in vivo, human", "settings": "single dose 5 mg ODT, 12 healthy subjects; no remarkable adverse events"}}}
{"smiles": "CC(C)OC(=O)CNC(=O)[C@@H]1C[C@H](C)CC[C@H]1C(C)C", "note": "[AX-8, [((1R,2S,5R)-2-isopropyl-5-methyl-cyclohexanecarbonyl)-amino]-acetic acid isopropyl ester]", "values": [{"measurement": "responses in SafetyScreen87 off-target panel", "setting": "[1]", "value": "No significant responses were observed"}, {"measurement": "Urge-to-Cough VAS, Median, Follow-Up (Visit 4)", "setting": "[2]; >24-hour period after treatment, n=11, Screening 51.5", "value": 46.0, "unit": "mm"}, {"measurement": "Throat Irritation VAS, Median, Follow-Up (Visit 4)", "setting": "[2]; >24-hour period after treatment, n=11, Screening 55.0", "value": 9.0, "unit": "mm"}, {"measurement": "Cough Severity VAS, Median, Follow-Up (Visit 4)", "setting": "[2]; >24-hour period after treatment, n=11, Screening 61.5", "value": 47.0, "unit": "mm"}, {"measurement": "Cough Severity VAS, Median, End of Study (Visit 5)", "setting": "[2]; Day 7 to 14, n=11", "value": 64.0, "unit": "mm"}, {"measurement": "Throat Irritation VAS, Median, End of Study (Visit 5)", "setting": "[2]; Day 7 to 14, n=11", "value": 47.0, "unit": "mm"}, {"measurement": "Urge-to-Cough VAS, Median, End of Study (Visit 5)", "setting": "[2]; Day 7 to 14, n=11", "value": 57.0, "unit": "mm"}, {"measurement": "time of apparent maximum improvement in urge-to-cough", "setting": "[2]; FIG. 8", "value": "about 3 hours"}, {"measurement": "throat cooling VAS time course", "setting": "[2]; FIG. 10", "value": "increase only at 30 minutes"}, {"measurement": "cough severity VAS time course", "setting": "[2]; hourly for 6 hours after treatment, FIG. 7", "value": "reduction from the first hour that persisted for the 6 hours of monitoring"}, {"measurement": "urge-to-cough VAS time course", "setting": "[2]; hourly for 6 hours after treatment, FIG. 8", "value": "improvement from the first hour that persisted for the 6 hours of monitoring"}, {"measurement": "throat irritation VAS time course", "setting": "[2]; hourly for 6 hours after treatment, FIG. 9, baseline lower on treatment day", "value": "improvement from the first hour that persisted for the 6 hours of monitoring"}, {"measurement": "GRCS Cough Frequency: patients rating about the same, n (%)", "setting": "[3]; 4 hours after treatment, n=12", "value": "7 (58.3%)"}, {"measurement": "GRCS Cough Frequency: patients rating better, n (%)", "setting": "[3]; 4 hours after treatment, n=12", "value": "4 (33.3%)"}, {"measurement": "GRCS Cough Frequency: patients rating worse, n (%)", "setting": "[3]; 4 hours after treatment, n=12", "value": "1 (8.3%)"}, {"measurement": "GRCS Cough Severity: patients rating about the same, n (%)", "setting": "[3]; 4 hours after treatment, n=12", "value": "6 (50%)"}, {"measurement": "GRCS Cough Severity: patients rating better, n (%)", "setting": "[3]; 4 hours after treatment, n=12", "value": "5 (41.7%)"}, {"measurement": "GRCS Cough Severity: patients rating worse, n (%)", "setting": "[3]; 4 hours after treatment, n=12", "value": "1 (8.3%)"}, {"measurement": "GRCS Cough Frequency: patients rating about the same, n (%)", "setting": "[3]; 24 hours after treatment, n=11", "value": "6 (54.5%)"}, {"measurement": "GRCS Cough Frequency: patients rating better, n (%)", "setting": "[3]; 24 hours after treatment, n=11", "value": "4 (36.4%)"}, {"measurement": "GRCS Cough Frequency: patients rating worse, n (%)", "setting": "[3]; 24 hours after treatment, n=11", "value": "1 (9.1%)"}, {"measurement": "GRCS Cough Severity: patients rating about the same, n (%)", "setting": "[3]; 24 hours after treatment, n=11", "value": "6 (54.5%)"}, {"measurement": "GRCS Cough Severity: patients rating better, n (%)", "setting": "[3]; 24 hours after treatment, n=11", "value": "4 (36.4%)"}, {"measurement": "GRCS Cough Severity: patients rating worse, n (%)", "setting": "[3]; 24 hours after treatment, n=11", "value": "1 (9.1%)"}, {"measurement": "safety and tolerability", "setting": "[4]", "value": "well tolerated"}]}
